According to patent US20250026742A1 (SUZHOU ARK BIOPHARMACEUTICAL CO., LTD., priority 2021, published 2025):
Counter-ions that a name gives are not always drawn.

Columns and labels:
[1] = tested on: human lung cancer NCI-H23 cells; assay: In vivo pharmacodynamics in the NCI-H23 subcutaneous graft tumor model; parameters: species or system CB.17/SCID mouse; settings: for TGI (%) / Tumor change (%): 14 days after administration; for TGI (%) / Tumor change (%) / Tumor volume (mm^3) day 0 / Tumor volume (mm^3) day 14: 12.5 mg/kg PO QD + Cisplatin 1.5 mg/kg IP QW, NCI-H23 xenograft, CB.17/SCID mice; for body weight of mice after drug administration / decrease in tumor volume compared to the Cisplatin+VX-970 group: combination with Cisplatin; for body weight of mice after drug administration: no difference in body weight loss between the groups (FIG. 1); for Tumor volume (mm^3) day 0: day 0 (start of administration); for Tumor volume (mm^3) day 14: 2 weeks; for decrease in tumor volume compared to the Cisplatin+VX-970 group: p<0.05 in T-test (FIGS. 2 and 3)
Protocol: • 1, cell culture: human lung cancer NCI-H23 cells (ATCC, Item No.: CRL-5800) are performed with an in vitro monolayer culture. […] Trypsin-EDTA was used for conventional digestion and treatment of passaging twice a week. When the cell saturation is […] and the number meets the requirement, the cells are collected, counted and inoculated. • 2, Animals: CB.17/SCID mouse, female, 6-8 weeks old, weighing 18-22 grams. A total of 84 mice are needed, which are provided by Beijing Viton Lihua Laboratory Animal Technology Co., Ltd. or equivalent qualified suppliers. • 3.
• 4. Tumor inoculation: 0.2 mL (10×10^6 cells) of NCI-H23 cells (plus stromal gel, volume ratio 1:1) were subcutaneously inoculated into the right back of each mouse. Mice are grouped for drug administration when the average tumor volume reached about 200 mm^3. Animals were weighed before dosing and tumor volumes were measured. Groups were randomized according to tumor volume (randomized area group design).
• 1 ? The experimental index is to examine whether the tumor growth is inhibited, delayed or cured. […] Calculation of Tumor change (%): Tumor change (%)=(average tumor volume at the end of administration of a treatment group−average tumor volume at the beginning of administration of a treatment group)/average tumor volume at the beginning of administration of a treatment group×100%. Tumor change (%): less than 0, non-growth of the tumor in the mice after the drug administration, and the existence of inhibition. • 6.

[2] = biological target: ATR kinase (Homo sapiens (Human), UniProt Q13535); assay: ATR enzyme activity inhibition assay (HTRF); assay type: biochemical; settings: p53 substrate, full-length ATR enzyme
Protocol: The inhibitory ability to ATR kinase for selected compounds was tested by the HTRF (Homogeneous Time-Resolved Fluorescence). In the reaction system, After the substrate p53 is phosphorylated by ATR, the anti-phospho-p53-Eu that serves as an energy donor and specifically binds to the phosphorylation site on p53 is added. Then, the anti-GST-d2 as an energy acceptor that specifically binds to the GST tag carried on p53 is added. […] The IC50 of the sample to be tested can be obtained through graphing and calculation.
Prepare various buffer systems required for the experiment: • 1. […] Prepare detection buffer: Dilute each of the anti-phospho-p53-Eu cryptate (Cisbio, Cat #61P08KA) and anti-GST-d2 (Cisbio, Cat #61GSTDLB) to 1 unit using HTRF detection buffer (Cisbio, Cat #62SDBRDF).
Powdered compounds were dissolved in DMSO to from a stock solution at a concentration of 10 mM. The solution of compounds to be tested at a concentration of […] was performed a 3-fold dilution for 10 concentrations with DMSO. […] 5 μL of ATR was added to each well accordingly. Each well is incubated at 25° C. for 10 min, added with 5 μL of reaction substrate, incubated at 25° C. for 90 min and added with 10 μL of detection solution. […] The inhibition curves of the compounds were made by the four-parameter […] regression equation of XLfit software, and the inhibition rates of the compounds were calculated.

Sequence of ATR kinase (Q13535 whole entry): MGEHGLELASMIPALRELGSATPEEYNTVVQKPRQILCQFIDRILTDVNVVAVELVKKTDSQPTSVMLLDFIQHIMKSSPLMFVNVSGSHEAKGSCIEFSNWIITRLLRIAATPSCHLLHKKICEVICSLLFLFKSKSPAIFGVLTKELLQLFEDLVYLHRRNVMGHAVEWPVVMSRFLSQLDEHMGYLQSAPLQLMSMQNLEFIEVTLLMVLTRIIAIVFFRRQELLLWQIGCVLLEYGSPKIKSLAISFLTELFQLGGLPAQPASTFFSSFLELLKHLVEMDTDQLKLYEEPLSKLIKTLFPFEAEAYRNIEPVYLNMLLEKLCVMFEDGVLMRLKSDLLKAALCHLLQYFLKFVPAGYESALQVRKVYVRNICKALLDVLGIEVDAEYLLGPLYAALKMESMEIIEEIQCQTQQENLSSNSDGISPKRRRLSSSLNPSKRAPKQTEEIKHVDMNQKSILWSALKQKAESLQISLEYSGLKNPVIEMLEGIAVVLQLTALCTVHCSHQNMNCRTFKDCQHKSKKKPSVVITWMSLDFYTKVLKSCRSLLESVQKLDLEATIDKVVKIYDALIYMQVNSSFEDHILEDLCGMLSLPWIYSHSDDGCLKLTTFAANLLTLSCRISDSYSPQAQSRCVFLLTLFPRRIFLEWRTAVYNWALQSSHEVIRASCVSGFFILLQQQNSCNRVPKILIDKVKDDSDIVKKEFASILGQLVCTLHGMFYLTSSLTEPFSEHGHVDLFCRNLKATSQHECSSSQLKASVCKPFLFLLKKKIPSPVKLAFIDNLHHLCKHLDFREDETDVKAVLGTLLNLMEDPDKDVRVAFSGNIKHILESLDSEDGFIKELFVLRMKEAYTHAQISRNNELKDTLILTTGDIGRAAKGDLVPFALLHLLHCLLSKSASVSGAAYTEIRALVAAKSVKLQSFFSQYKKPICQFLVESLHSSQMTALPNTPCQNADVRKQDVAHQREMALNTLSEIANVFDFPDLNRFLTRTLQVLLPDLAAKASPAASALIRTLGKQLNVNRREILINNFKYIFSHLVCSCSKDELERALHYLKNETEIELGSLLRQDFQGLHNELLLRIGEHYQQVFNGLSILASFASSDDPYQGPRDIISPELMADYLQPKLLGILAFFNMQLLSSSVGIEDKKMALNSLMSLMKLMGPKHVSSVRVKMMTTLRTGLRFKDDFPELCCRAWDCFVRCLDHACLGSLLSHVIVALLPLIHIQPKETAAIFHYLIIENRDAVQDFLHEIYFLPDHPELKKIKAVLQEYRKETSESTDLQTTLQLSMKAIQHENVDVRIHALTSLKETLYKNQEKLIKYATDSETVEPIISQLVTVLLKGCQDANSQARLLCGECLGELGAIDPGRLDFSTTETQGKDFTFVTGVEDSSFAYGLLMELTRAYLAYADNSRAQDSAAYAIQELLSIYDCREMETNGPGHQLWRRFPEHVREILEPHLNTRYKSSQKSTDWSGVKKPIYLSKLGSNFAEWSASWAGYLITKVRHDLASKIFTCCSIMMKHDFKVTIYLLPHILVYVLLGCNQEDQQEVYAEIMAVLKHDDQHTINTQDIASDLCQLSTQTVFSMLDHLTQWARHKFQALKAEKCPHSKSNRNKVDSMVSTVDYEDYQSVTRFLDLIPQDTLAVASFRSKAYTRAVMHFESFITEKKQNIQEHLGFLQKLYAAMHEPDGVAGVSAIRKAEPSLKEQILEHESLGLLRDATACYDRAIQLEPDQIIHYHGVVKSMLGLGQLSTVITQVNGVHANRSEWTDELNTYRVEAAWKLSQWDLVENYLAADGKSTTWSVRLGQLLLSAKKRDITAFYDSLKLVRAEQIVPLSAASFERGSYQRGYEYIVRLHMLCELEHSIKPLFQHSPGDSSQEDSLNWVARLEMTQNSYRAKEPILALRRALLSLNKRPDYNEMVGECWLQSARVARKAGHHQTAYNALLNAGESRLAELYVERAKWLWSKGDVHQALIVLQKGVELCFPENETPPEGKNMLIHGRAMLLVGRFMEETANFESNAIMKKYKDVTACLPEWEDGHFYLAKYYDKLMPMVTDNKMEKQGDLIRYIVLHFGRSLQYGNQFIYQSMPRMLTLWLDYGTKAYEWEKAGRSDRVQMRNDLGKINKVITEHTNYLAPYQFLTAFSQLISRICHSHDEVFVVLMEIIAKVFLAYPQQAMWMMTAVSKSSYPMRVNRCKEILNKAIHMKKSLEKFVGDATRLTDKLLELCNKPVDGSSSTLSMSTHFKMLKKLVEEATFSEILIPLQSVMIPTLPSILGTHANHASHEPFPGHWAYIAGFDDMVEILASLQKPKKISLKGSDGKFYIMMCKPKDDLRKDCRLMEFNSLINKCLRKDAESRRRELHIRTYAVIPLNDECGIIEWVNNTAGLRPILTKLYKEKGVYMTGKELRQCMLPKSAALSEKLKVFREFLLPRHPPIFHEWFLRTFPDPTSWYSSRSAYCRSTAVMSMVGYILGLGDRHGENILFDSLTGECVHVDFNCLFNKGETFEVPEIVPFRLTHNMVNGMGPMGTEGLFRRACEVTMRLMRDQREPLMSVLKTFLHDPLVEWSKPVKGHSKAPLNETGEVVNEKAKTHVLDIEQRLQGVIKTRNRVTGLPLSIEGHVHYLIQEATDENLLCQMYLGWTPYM
Sequence of ATR kinase (Q8WXE1 whole entry partner): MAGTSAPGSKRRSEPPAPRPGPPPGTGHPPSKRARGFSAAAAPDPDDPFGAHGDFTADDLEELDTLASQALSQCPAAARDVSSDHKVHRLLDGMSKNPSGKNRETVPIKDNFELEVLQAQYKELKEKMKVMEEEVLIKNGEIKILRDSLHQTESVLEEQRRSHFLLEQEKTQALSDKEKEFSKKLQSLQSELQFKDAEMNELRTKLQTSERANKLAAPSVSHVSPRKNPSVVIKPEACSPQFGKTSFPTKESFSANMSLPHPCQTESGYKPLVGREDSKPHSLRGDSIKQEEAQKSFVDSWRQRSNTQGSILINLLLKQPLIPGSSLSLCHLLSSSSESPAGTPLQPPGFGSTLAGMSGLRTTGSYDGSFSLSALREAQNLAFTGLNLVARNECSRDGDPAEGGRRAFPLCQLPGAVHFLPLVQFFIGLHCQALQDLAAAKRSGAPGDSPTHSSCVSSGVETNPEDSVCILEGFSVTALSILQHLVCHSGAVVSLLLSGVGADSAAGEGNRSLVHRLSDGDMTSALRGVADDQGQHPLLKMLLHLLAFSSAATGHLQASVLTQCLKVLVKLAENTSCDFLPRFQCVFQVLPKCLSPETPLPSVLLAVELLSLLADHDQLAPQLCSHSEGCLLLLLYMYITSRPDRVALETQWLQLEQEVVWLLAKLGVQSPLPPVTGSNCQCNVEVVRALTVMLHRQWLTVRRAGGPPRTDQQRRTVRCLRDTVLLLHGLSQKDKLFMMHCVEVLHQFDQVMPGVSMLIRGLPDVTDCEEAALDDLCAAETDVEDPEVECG

Compound	TGI (%) [1] [%]	Tumor change (%) [1] [%]	Tumor change (%) ([1]; listed as VX970)	body weight of mice after drug administration [1]	Tumor volume (mm^3) day 0 [1] [mm^3]	Tumor volume (mm^3) day 14 [1] [mm^3]	IC50 [2] [nM]	decrease in tumor volume compared to the Cisplatin+VX-970 group [1]
CNCc1ccc(-c2cc(-c3nc(-c4ccc(S(=O)(=O)C(C)C)cc4)cnc3N)on2)cc1 [VX-970, Berzosertib, reference compound]	128	−12	−13	decrease in body weight	266	231	–	–
(R)-5-(5-amino-6-(3-(4-((methylamino)methyl)phenyl)isoxazol-5-yl-4-deuterium)pyrazin-2-yl)-3-fluoro-2,2-dimethyl-2,3-dihydrobenzo[b]thiophene 1,1-dioxide or (S)-5-(5-amino-6-(3-(4-((methylamino)methyl)phenyl)isoxazol-5-yl-4-deuterium)pyrazin-2-yl)-3-fluoro-2,2-dimethyl-2,3-dihydrobenzo[b]thiophene 1,1-dioxide [Example 38-1 or 38-2]	159	−29	–	decrease in body weight	252	180	0.75	more obvious decrease in tumor volume
(R)-5-(5-amino-6-(5-(4-((methylamino)methylene)phenyl)-1,3,4-oxadiazol-2-yl)pyrazin-2-yl)-3-fluoro-2,2-dimethyl-2,3-dihydrobenzo[b]thiophene 1,1-dioxide or (S)-5-(5-amino-6-(5-(4-((methylamino)methylene)phenyl)-1,3,4-oxadiazol-2-yl)pyrazin-2-yl)-3-fluoro-2,2-dimethyl-2,3-dihydrobenzo[b]thiophene 1,1-dioxide [Example 33-1 or 33-2]	245	−66	–	decrease in body weight	267	92	0.83	more obvious decrease in tumor volume
CNCc1ccc(-c2cc(-c3nc(-c4ccc5c(c4)C(F)C(C)(C)S5(=O)=O)cnc3N)on2)cc1 (centres unmarked) [Example 32, 5-(5-amino-6-(3-(4-((methylamino)methyl)phenyl)isoxazol-5-yl)pyrazin-2-yl)-3-fluoro-2,2-dimethyl-2,3-dihydrobenzo[b]thiophene 1,1-dioxide]	–	–	–	–	–	–	2.09	–
CC(C)S(=O)(=O)c1ccc(-c2cnc(N)c(-c3cc(-c4c(F)cc(CNC(=N)N)cc4F)no3)n2)cc1 [Example 11, 1-(4-(5-(3-amino-6-(4-(isopropylsulfonyl)phenyl)pyrazin-2-yl)isoxazol-3-yl)-3,5-difluorobenzyl)guanidine dihydrochloride]	–	–	–	–	–	–	0.82	–
CC(C)S(=O)(=O)c1ccc(-c2cnc(N)c(-c3cc(-c4ccc(NC(N)=O)cc4)no3)n2)cc1 [Example 15, 1-(4-(5-(3-amino-6-(4-(isopropylsulfonyl)phenyl)pyrazin-2-yl)isoxazol-3-yl)phenyl)urea]	–	–	–	–	–	–	2	–
